From US8952024B2, “Herbicidal pyrimidone derivatives” (E I du Pont de Nemours and Company, priority 2009, dated 2015)

What was measured:
Assay type in all cases: in vivo
[1] = tested on: pigweed (Amaranthus retroflexus); assay: Test A pre-/postemergence plant response
Procedure, shortened: (§1)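 Injury scores (0, no effect; 100, complete control) come from visual comparison with untreated controls roughly ten days post-treatment. Test chemicals in a surfactant-containing non-phytotoxic solvent were applied as a directed soil spray preemergence and to one- to two-leaf seedlings postemergence.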

[2] = tested on: morningglory (Ipomoea spp.); assay: Test A pre-/postemergence plant response
Procedure, shortened: as §1

rice (Oryza sativa) = assay: Test B flooded paddy test; conditions: for Plant response rating, Flood, Rice: 250 g ai/ha, flooded paddy test, visual rating on 0 to 100 scale (0 no effect, 100 complete control) after 13 to 15 days; for Plant response rating, Rice: Flood (flooded paddy test), 13 to 15 days
Procedure, shortened: (§2)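 Flooded-pot test: water raised to 3 cm above soil when treating, compound put in the water, level unchanged thereafter. Plants were at 2 leaves. Readout after 13 to 15 days, visual, relative to controls; 0 signifies no effect and 100 complete control.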

[3] = tested on: ducksalad (Heteranthera limosa); assay: Test B flooded paddy test; conditions: for Plant response rating, Flood, Ducksalad: 250 g ai/ha, flooded paddy test, visual rating on 0 to 100 scale (0 no effect, 100 complete control) after 13 to 15 days; for Plant response rating, Ducksalad: Flood (flooded paddy test), 13 to 15 days
Procedure, shortened: as §2

[4] = tested on: barnyardgrass (Echinochloa crus-galli); assay: Test B flooded paddy test; conditions: for Plant response rating, Flood, Barnyardgrass: 250 g ai/ha, flooded paddy test, visual rating on 0 to 100 scale (0 no effect, 100 complete control) after 13 to 15 days; for Plant response rating, Barnyardgrass: Flood (flooded paddy test), 13 to 15 days
Procedure, shortened: as §2

[5] = tested on: umbrella sedge (Cyperus difformis); assay: Test B flooded paddy test; conditions: for Plant response rating, Flood, Sedge, Umbrella: 250 g ai/ha, flooded paddy test, visual rating on 0 to 100 scale (0 no effect, 100 complete control) after 13 to 15 days; for Plant response rating, Sedge, Umbrella: Flood (flooded paddy test), 13 to 15 days
Procedure, shortened: as §2

[6] = tested on: woolly cupgrass (Eriochloa villosa); assay: Test B pre-/postemergence plant response; conditions: for Cupgrass, Woolly plant response rating: 0 to 100 scale
Procedure, shortened: (§3)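 Pre-em in loam/sand; post-em at 1–4 leaf (2–18 cm) in peat mix. Solvent + surfactant formulation. Greenhouse 13–15 d; visual % control vs untreated, 0–100.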

[7] = tested on: wheat (Triticum aestivum); assay: Test B pre-/postemergence plant response; conditions: for Wheat plant response rating: 0 to 100 scale
Procedure, shortened: as §3

[8] = tested on: goosegrass (Eleusine indica); assay: Test B pre-/postemergence plant response; conditions: for Goosegrass plant response rating: 0 to 100 scale
Procedure, shortened: as §3

[9] = tested on: giant foxtail (Setaria faberii); assay: Test B pre-/postemergence plant response; conditions: for Foxtail, Giant plant response rating: 0 to 100 scale
Procedure, shortened: as §3

[10] = tested on: morningglory (Ipomoea coccinea); assay: Test B pre-/postemergence plant response; conditions: for Morningglory plant response rating: 0 to 100 scale
Procedure, shortened: as §3

[11] = tested on: johnsongrass (Sorghum halepense); assay: Test B pre-/postemergence plant response; conditions: for Johnsongrass plant response rating: 0 to 100 scale
Procedure, shortened: as §3

[12] = Postemergence, 125 g ai/ha, 0 to 100 scale where 0 is no effect and 100 is complete control
[13] = Postemergence, 500 g ai/ha, visual injury, 0 to 100 scale (0 no effect, 100 complete control), approx. ten days
[14] = Preemergence, 125 g ai/ha, 0 to 100 scale, 0 = no effect, 100 = complete control
[15] = Preemergence, 500 g ai/ha, 0 to 100 scale, 0 = no effect, 100 = complete control
[16] = 62 g ai/ha, scale of 0 to 100 where 0 is no effect and 100 is complete control
[17] = 125 g ai/ha, scale 0 to 100, 0 is no effect, 100 is complete control
[18] = Flood, 31 g ai/ha, scale 0 to 100 (0 no effect, 100 complete control)
[19] = Postemergence, 31 g ai/ha, 0 to 100 scale (0 no effect, 100 complete control)
[20] = Postemergence, 125 g ai/ha, scale 0 to 100 (0 no effect, 100 complete control)
[21] = Postemergence, 250 g ai/ha, scale 0 to 100 (0 no effect, 100 complete control), 13 to 15 days
[22] = Postemergence, 62 g ai/ha, scale 0 to 100 (0 no effect, 100 complete control)
[23] = Preemergence, 31 g ai/ha, scale 0 to 100 (0 no effect, 100 complete control)
[24] = Preemergence, 62 g ai/ha, scale 0 to 100, 0 no effect, 100 complete control
[25] = Preemergence, 125 g ai/ha, scale 0 to 100, 0 no effect, 100 complete control
[26] = Postemergence, 1000 g ai/ha, 0 to 100 scale, 0 = no effect, 100 = complete control, approx. ten days
[27] = Preemergence, 1000 g ai/ha, visual injury, 0 to 100 scale (0 no effect, 100 complete control), approx. ten days

CCCCn1c(C2CC2)ncc(C(=O)C2=C(O)CCCC2=O)c1=O [Compound 193]
85: Plant response rating, Ducksalad [3, 17] | Plant response rating, Cupgrass, Woolly [6, 22] | Plant response rating, Goosegrass [8, 19] | Plant response rating, Foxtail, Giant [9, 22]
0: Rice plant response rating (rice (Oryza sativa); [18]) | Barnyardgrass plant response rating [4, 18] | Sedge, Umbrella plant response rating [5, 18] | Plant response rating, Wheat [7, 23] | Plant response rating, Wheat [7, 24] | Plant response rating, Foxtail, Giant [9, 23] | Plant response rating, Johnsongrass [11, 23] | Plant response rating, Johnsongrass [11, 24]
65: Plant response rating, Flood, Rice (rice (Oryza sativa)) | Plant response rating, Foxtail, Giant [9, 24] | Plant response rating, Morningglory [10, 20] | Plant response rating, Johnsongrass [11, 22]
90: Plant response rating, Morningglory [2, 15] | Plant response rating, Flood, Sedge, Umbrella [5] | Cupgrass, Woolly plant response rating ([6]; Preemergence, 250 g ai/ha) | Plant response rating, Morningglory [10, 21] | Plant response rating, Morningglory [10, 24]
20: Plant response rating, Barnyardgrass [4, 16]
60: Plant response rating, Wheat [7, 21] | Plant response rating, Morningglory [10, 22] | Johnsongrass plant response rating ([11]; Preemergence, 250 g ai/ha)
40: Ducksalad plant response rating [3, 18] | Plant response rating, Morningglory [10, 19]
80: Plant response rating, Morningglory [2, 14] | Plant response rating, Cupgrass, Woolly [6, 25] | Foxtail, Giant plant response rating ([9]; Preemergence, 250 g ai/ha) | Plant response rating, Johnsongrass [11, 21]
98: Plant response rating, Cupgrass, Woolly [6, 21] | Plant response rating, Goosegrass [8, 20] | Plant response rating, Goosegrass [8, 23]
15: Plant response rating, Rice (rice (Oryza sativa); [16]) | Plant response rating, Johnsongrass [11, 25]
45: Plant response rating, Barnyardgrass [4, 17]
10: Plant response rating, Cupgrass, Woolly [6, 23] | Plant response rating, Wheat [7, 25]
70: Plant response rating, Sedge, Umbrella [5, 17] | Plant response rating, Cupgrass, Woolly [6, 24] | Plant response rating, Foxtail, Giant [9, 25] | Plant response rating, Johnsongrass [11, 20]
50: Plant response rating, Ducksalad [3, 16] | Plant response rating, Flood, Barnyardgrass [4] | Plant response rating, Johnsongrass [11, 19]
35: Plant response rating, Wheat [7, 22]
75: Plant response rating, Cupgrass, Woolly [6, 19] | Plant response rating, Foxtail, Giant [9, 19] | Plant response rating, Morningglory [10, 23]
25: Wheat plant response rating ([7]; Preemergence, 250 g ai/ha)
30: Plant response rating, Rice (rice (Oryza sativa); [17]) | Plant response rating, Sedge, Umbrella [5, 16] | Plant response rating, Wheat [7, 19]
100: Plant response rating, Pigweed [1, 12] | Pigweed plant response rating [1, 13] | Plant response rating, Pigweed [1, 14] | Plant response rating, Pigweed [1, 15] | Plant response rating, Morningglory [2, 12] | Morningglory plant response rating [2, 13] | Plant response rating, Flood, Ducksalad [3] | Plant response rating, Goosegrass [8, 21] | Plant response rating, Goosegrass [8, 24] | Plant response rating, Goosegrass [8, 25] | Goosegrass plant response rating ([8]; Preemergence, 250 g ai/ha) | Plant response rating, Foxtail, Giant [9, 21]
95: Plant response rating, Cupgrass, Woolly [6, 20] | Plant response rating, Goosegrass [8, 22] | Plant response rating, Foxtail, Giant [9, 20] | Plant response rating, Morningglory [10, 25] | Morningglory plant response rating ([10]; Preemergence, 250 g ai/ha)

CCCc1ncc(C(=O)C2=C(O)CCCC2=O)c(=O)n1-c1ccccc1 [Compound 217]
55: Plant response rating, Cupgrass, Woolly [6, 21] | Johnsongrass plant response rating ([11]; Preemergence, 250 g ai/ha)
95: Plant response rating, Goosegrass [8, 21] | Plant response rating, Goosegrass [8, 23]
40: Plant response rating, Flood, Ducksalad [3] | Plant response rating, Flood, Sedge, Umbrella [5] | Plant response rating, Sedge, Umbrella [5, 16] | Plant response rating, Foxtail, Giant [9, 24]
70: Plant response rating, Morningglory [2, 27] | Plant response rating, Foxtail, Giant [9, 19] | Plant response rating, Morningglory [10, 19]
45: Plant response rating, Cupgrass, Woolly [6, 20] | Plant response rating, Cupgrass, Woolly [6, 22] | Plant response rating, Wheat [7, 22]
80: Cupgrass, Woolly plant response rating ([6]; Preemergence, 250 g ai/ha) | Plant response rating, Goosegrass [8, 19] | Plant response rating, Goosegrass [8, 22] | Plant response rating, Morningglory [10, 20] | Plant response rating, Morningglory [10, 21]
75: Plant response rating, Foxtail, Giant [9, 22] | Plant response rating, Foxtail, Giant [9, 25] | Plant response rating, Morningglory [10, 22]
90: Plant response rating, Foxtail, Giant [9, 21]
98: Plant response rating, Goosegrass [8, 24]
65: Plant response rating, Cupgrass, Woolly [6, 25] | Plant response rating, Johnsongrass [11, 21]
5: Plant response rating, Cupgrass, Woolly [6, 24] | Plant response rating, Foxtail, Giant [9, 23] | Plant response rating, Johnsongrass [11, 24]
20: Plant response rating, Flood, Rice (rice (Oryza sativa)) | Plant response rating, Johnsongrass [11, 25]
60: Plant response rating, Johnsongrass [11, 20] | Plant response rating, Johnsongrass [11, 22]
30: Plant response rating, Wheat [7, 19]
85: Plant response rating, Goosegrass [8, 20] | Plant response rating, Foxtail, Giant [9, 20] | Foxtail, Giant plant response rating ([9]; Preemergence, 250 g ai/ha)
0: Plant response rating, Rice (rice (Oryza sativa); [16]) | Plant response rating, Ducksalad [3, 16] | Plant response rating, Flood, Barnyardgrass [4] | Plant response rating, Barnyardgrass [4, 16] | Plant response rating, Cupgrass, Woolly [6, 23] | Plant response rating, Wheat [7, 23] | Plant response rating, Wheat [7, 24] | Plant response rating, Wheat [7, 25] | Wheat plant response rating ([7]; Preemergence, 250 g ai/ha) | Plant response rating, Morningglory [10, 23] | Plant response rating, Morningglory [10, 24] | Plant response rating, Morningglory [10, 25] | Morningglory plant response rating ([10]; Preemergence, 250 g ai/ha) | Plant response rating, Johnsongrass [11, 19] | Plant response rating, Johnsongrass [11, 23]
50: Plant response rating, Wheat [7, 21]
25: Plant response rating, Cupgrass, Woolly [6, 19]
100: Plant response rating, Pigweed [1, 26] | Plant response rating, Pigweed [1, 27] | Plant response rating, Morningglory [2, 26] | Plant response rating, Goosegrass [8, 25] | Goosegrass plant response rating ([8]; Preemergence, 250 g ai/ha)
